Measurements from PubChem BioAssay (NCI).
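Results reflect a 48-hour exposure of cells in 96-well plates to compound at five concentrations. Abbreviation: GI50, concentration required for 50% inhibition of growth. TGI is the concentration that stops growth completely.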

How the values were obtained:
Assay in all cases: growth of human tumour cells (NCI), 48 h
CAKI-1 renal = system: CAKI-1 renal
MDA-MB-435 = system: MDA-MB-435
M14 melanoma = system: M14 melanoma
SK-MEL-28 melanoma = system: SK-MEL-28 melanoma
HL-60(TB) leukemia = system: HL-60(TB) leukemia
OVCAR-8 ovarian = system: OVCAR-8 ovarian
SN12C renal = system: SN12C renal
T-47D breast = system: T-47D breast
HCT-15 colon = system: HCT-15 colon
U251 CNS = system: U251 CNS
UACC-62 melanoma = system: UACC-62 melanoma
SF-268 CNS = system: SF-268 CNS
MCF7 breast = system: MCF7 breast
NCI-H226 lung = system: NCI-H226 lung
COLO 205 colon = system: COLO 205 colon
MALME-3M melanoma = system: MALME-3M melanoma
OVCAR-5 ovarian = system: OVCAR-5 ovarian
RPMI-8226 leukemia = system: RPMI-8226 leukemia
NCI-H23 lung = system: NCI-H23 lung
HOP-92 NSCLC = system: HOP-92 NSCLC
NCI/ADR-RES ovarian = system: NCI/ADR-RES ovarian
SW-620 colon = system: SW-620 colon
DU-145 prostate = system: DU-145 prostate
CCRF-CEM leukemia = system: CCRF-CEM leukemia
A498 renal = system: A498 renal
SK-MEL-2 melanoma = system: SK-MEL-2 melanoma
SNB-75 CNS = system: SNB-75 CNS
HOP-62 NSCLC = system: HOP-62 NSCLC
SNB-19 CNS = system: SNB-19 CNS
786-0 renal = system: 786-0 renal
LOX IMVI melanoma = system: LOX IMVI melanoma
HS 578T breast = system: HS 578T breast
K-562 leukemia = system: K-562 leukemia
SR leukemia = system: SR leukemia
ACHN renal = system: ACHN renal
TK-10 renal = system: TK-10 renal
KM12 colon = system: KM12 colon
HCC-2998 colon = system: HCC-2998 colon
IGROV1 ovarian = system: IGROV1 ovarian
PC-3 prostate = system: PC-3 prostate
SK-MEL-5 melanoma = system: SK-MEL-5 melanoma
EKVX NSCLC = system: EKVX NSCLC
NCI-H460 lung = system: NCI-H460 lung
MDA-MB-231 breast = system: MDA-MB-231 breast
SF-295 CNS = system: SF-295 CNS
OVCAR-3 ovarian = system: OVCAR-3 ovarian
SF-539 CNS = system: SF-539 CNS
A549 NSCLC = system: A549 NSCLC
MOLT-4 leukemia = system: MOLT-4 leukemia
HT29 colon = system: HT29 colon
RXF 393 renal = system: RXF 393 renal
UO-31 renal = system: UO-31 renal
UACC-257 melanoma = system: UACC-257 melanoma
NCI-H522 lung = system: NCI-H522 lung
SK-OV-3 ovarian = system: SK-OV-3 ovarian
BT-549 breast = system: BT-549 breast
OVCAR-4 ovarian = system: OVCAR-4 ovarian
HCT-116 colon = system: HCT-116 colon

For `C/C1=C/C(=O)O[C@@H]2C[C@@H](CC[C@H](C)/C=C\C=C\CC1)O[C@@](O)([C@@H]1CSC(=O)N1CO)C2`, the GI50 (CAKI-1 renal) was 20.3 nM, the TGI (CAKI-1 renal) was 382 nM and the GI50 (MDA-MB-435) was 290 nM. The TGI (MDA-MB-435) was > 88600 nM, the GI50 (M14 melanoma) was 227 nM and the TGI (M14 melanoma) was 21200 nM. The GI50 (SK-MEL-28 melanoma) was 164 nM, the TGI (SK-MEL-28 melanoma) was 603 nM and the GI50 (HL-60(TB) leukemia) was 253 nM. The TGI (HL-60(TB) leukemia) was 18800 nM, the GI50 (OVCAR-8 ovarian) was 1600 nM and the TGI (OVCAR-8 ovarian) was 74600 nM. For the same molecule, the GI50 (SN12C renal) was 48.5 nM, the TGI (SN12C renal) was > 57400 nM and the GI50 (T-47D breast) was 59.3 nM. For the same molecule, the TGI (T-47D breast) was 47600 nM, the GI50 (HCT-15 colon) was 68.9 nM and the TGI (HCT-15 colon) was > 91400 nM. For the same molecule, the GI50 (U251 CNS) was 99.2 nM, the TGI (U251 CNS) was 13600 nM and the GI50 (UACC-62 melanoma) was 86.3 nM. For the same molecule, the TGI (UACC-62 melanoma) was 26200 nM, the GI50 (SF-268 CNS) was 41.8 nM and the TGI (SF-268 CNS) was 198 nM. The GI50 (MCF7 breast) was 13100 nM, the TGI (MCF7 breast) was 37700 nM and the GI50 (NCI-H226 lung) was 104 nM. For the same molecule, the TGI (NCI-H226 lung) was > 100000 nM, the GI50 (COLO 205 colon) was 37.4 nM and the TGI (COLO 205 colon) was 146 nM. It also gave a GI50 (MALME-3M melanoma) of 96.2 nM, a TGI (MALME-3M melanoma) of 21000 nM and a GI50 (OVCAR-5 ovarian) of 36.7 nM. For the same molecule, the TGI (OVCAR-5 ovarian) was > 33900 nM, the GI50 (RPMI-8226 leukemia) was 161 nM and the TGI (RPMI-8226 leukemia) was 23100 nM. The GI50 (NCI-H23 lung) was 151 nM, the TGI (NCI-H23 lung) was 30400 nM and the GI50 (HOP-92 NSCLC) was 16.5 nM. The TGI (HOP-92 NSCLC) was 61.4 nM, the GI50 (NCI/ADR-RES ovarian) was 1200 nM and the TGI (NCI/ADR-RES ovarian) was 46100 nM. It also gave a GI50 (SW-620 colon) of 12600 nM, a TGI (SW-620 colon) of 30000 nM and a GI50 (DU-145 prostate) of 239 nM. The TGI (DU-145 prostate) was > 57300 nM, the GI50 (CCRF-CEM leukemia) was 87.2 nM and the TGI (CCRF-CEM leukemia) was > 41400 nM. For the same molecule, the GI50 (A498 renal) was 18.3 nM, the TGI (A498 renal) was 72.4 nM and the GI50 (SK-MEL-2 melanoma) was 79.6 nM. It also gave a TGI (SK-MEL-2 melanoma) of 34900 nM, a GI50 (SNB-75 CNS) of 15.1 nM and a TGI (SNB-75 CNS) of 52.3 nM. For the same molecule, the GI50 (HOP-62 NSCLC) was 25.4 nM, the TGI (HOP-62 NSCLC) was 176 nM and the GI50 (SNB-19 CNS) was 83.3 nM. For the same molecule, the TGI (SNB-19 CNS) was 671 nM, the GI50 (786-0 renal) was 137 nM and the TGI (786-0 renal) was 12300 nM. The GI50 (LOX IMVI melanoma) was 22.8 nM, the TGI (LOX IMVI melanoma) was 11100 nM and the GI50 (HS 578T breast) was 17.4 nM. The TGI (HS 578T breast) was 60.6 nM, the GI50 (K-562 leukemia) was 213 nM and the TGI (K-562 leukemia) was 27100 nM. It also gave a GI50 (SR leukemia) of 154 nM, a TGI (SR leukemia) of 16000 nM and a GI50 (ACHN renal) of 40.3 nM. For the same molecule, the TGI (ACHN renal) was > 100000 nM, the GI50 (TK-10 renal) was 92.1 nM and the TGI (TK-10 renal) was 341 nM. For the same molecule, the GI50 (KM12 colon) was 4960 nM, the TGI (KM12 colon) was 24300 nM and the GI50 (HCC-2998 colon) was 13000 nM. For the same molecule, the TGI (HCC-2998 colon) was 65400 nM, the GI50 (IGROV1 ovarian) was 25.1 nM and the TGI (IGROV1 ovarian) was 92.8 nM. For the same molecule, the GI50 (PC-3 prostate) was 36.7 nM, the TGI (PC-3 prostate) was 3130 nM and the GI50 (SK-MEL-5 melanoma) was 222 nM. The TGI (SK-MEL-5 melanoma) was 13700 nM, the GI50 (EKVX NSCLC) was 144 nM and the TGI (EKVX NSCLC) was > 100000 nM. For the same molecule, the GI50 (NCI-H460 lung) was 241 nM, the TGI (NCI-H460 lung) was 34100 nM and the GI50 (MDA-MB-231 breast) was 63.4 nM. The TGI (MDA-MB-231 breast) was > 60400 nM, the GI50 (SF-295 CNS) was 41.4 nM and the TGI (SF-295 CNS) was 20500 nM. It also gave a GI50 (OVCAR-3 ovarian) of 122 nM, a TGI (OVCAR-3 ovarian) of 512 nM and a GI50 (SF-539 CNS) of 27.4 nM. For the same molecule, the TGI (SF-539 CNS) was 12400 nM, the GI50 (A549 NSCLC) was 46.5 nM and the TGI (A549 NSCLC) was > 46000 nM. The GI50 (MOLT-4 leukemia) was 3420 nM, the TGI (MOLT-4 leukemia) was > 51800 nM and the GI50 (HT29 colon) was 56.2 nM. The TGI (HT29 colon) was 20300 nM, the GI50 (RXF 393 renal) was 36.7 nM and the TGI (RXF 393 renal) was 276 nM. The GI50 (UO-31 renal) was 24.1 nM, the TGI (UO-31 renal) was 132 nM and the GI50 (UACC-257 melanoma) was 420 nM. The TGI (UACC-257 melanoma) was 16000 nM, the GI50 (NCI-H522 lung) was 37.1 nM and the TGI (NCI-H522 lung) was 2840 nM. It also gave a GI50 (SK-OV-3 ovarian) of 50.4 nM, a TGI (SK-OV-3 ovarian) of 404 nM and a GI50 (BT-549 breast) of 59.2 nM. It also gave a TGI (BT-549 breast) of 20000 nM, a GI50 (OVCAR-4 ovarian) of 176 nM and a TGI (OVCAR-4 ovarian) of 20400 nM. It also gave a GI50 (HCT-116 colon) of 194 nM and a TGI (HCT-116 colon) of 20000 nM.
